Tests used:
[1] = target: T1, Liver carboxylesterase 1 (Homo sapiens, UniProt P23141); test: Inhibition of CES1A1 in human liver microsomes using D-luciferin methyl ester as substrate preincubated for 10 mins followed by substrate addition and measured after 10 mins by fluorescence assay
T1 sequence (P23141 whole entry): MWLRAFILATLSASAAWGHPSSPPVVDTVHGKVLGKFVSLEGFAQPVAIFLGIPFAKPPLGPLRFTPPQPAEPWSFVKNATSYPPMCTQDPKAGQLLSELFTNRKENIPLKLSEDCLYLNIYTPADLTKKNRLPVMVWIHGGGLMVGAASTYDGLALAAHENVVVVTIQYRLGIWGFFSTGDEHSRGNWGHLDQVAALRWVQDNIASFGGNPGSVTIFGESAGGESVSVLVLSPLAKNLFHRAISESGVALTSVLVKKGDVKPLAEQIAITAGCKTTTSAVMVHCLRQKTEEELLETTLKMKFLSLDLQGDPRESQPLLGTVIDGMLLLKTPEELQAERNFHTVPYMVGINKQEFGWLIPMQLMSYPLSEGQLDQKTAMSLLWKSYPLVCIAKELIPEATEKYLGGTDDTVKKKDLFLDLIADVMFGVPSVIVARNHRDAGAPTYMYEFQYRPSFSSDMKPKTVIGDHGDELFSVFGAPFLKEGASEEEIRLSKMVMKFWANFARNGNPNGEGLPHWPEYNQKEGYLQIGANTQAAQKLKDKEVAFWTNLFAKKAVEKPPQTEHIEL

[2] = species: Homo sapiens; test: Selectivity ratio of IC50 for inhibition of CES2A1 in human liver microsomes to IC50 for CES1A1 in human liver microsomes; conditions: Microsome

Row | IC50 [1] [nM] | Ratio IC50 [2] | SMILES
1 | 100 | 30 | C=C1CC[C@]2(C(=O)O)CC[C@]3(C)C(=CC[C@@H]4[C@@]5(C)CC[C@H](O)[C@@](C)(CO)[C@@H]5CC[C@]43C)[C@@H]2C1
2 | 100 | – | CC1(C)CC[C@]2(C)CC[C@]3(C)C(=CC[C@@H]4[C@@]5(C)CCC(=O)C(C)(C)[C@@H]5CC[C@]43C)[C@@H]2C1
3 | 100 | 30 | C[C@H]1[C@H](C)CC[C@]2(C(=O)O)CC[C@]3(C)C(=CC[C@@H]4[C@@]5(C)CC[C@H](O)C(C)(C)[C@@H]5CC[C@]43C)[C@H]12 [URSOLIC ACID]
4 | 100 | 30 | C=C1CC[C@]2(C(=O)O)CC[C@]3(C)C(=CC[C@@H]4[C@@]5(C)CC[C@@H]6OC(C)(C)OC[C@@]6(C)[C@@H]5CC[C@]43C)[C@@H]2C1
5 | 100 | 30 | CC1(C)CC[C@]2(C(=O)O)CC[C@]3(C)C(=CC[C@@H]4[C@@]5(C)CC[C@@H]6OC(C)(C)OC[C@@]6(C)[C@@H]5CC[C@]43C)[C@@H]2C1
6 | 100 | 30 | C=C(C)[C@@H]1CC[C@]2(C(=O)O)CC[C@]3(C)[C@H](CC[C@@H]4[C@@]5(C)CC[C@@H]6OC(C)(C)OC[C@@]6(C)[C@@H]5CC[C@]43C)[C@@H]12

Row | SMILES | IC50 [1] [nM] | Ratio IC50 [2]
7 | C=C(C)[C@@H]1CC[C@]2(C(=O)O)CC[C@]3(C)[C@H](CC[C@@H]4[C@@]5(C)CC[C@H](O)[C@@](C)(CO)[C@@H]5CC[C@]43C)[C@@H]12 | 100 | 30
8 | C=C(C)[C@@H]1CC[C@]2(C)CC[C@]3(C)[C@H](CC[C@@H]4[C@@]5(C)CC[C@H](O)C(C)(C)[C@@H]5CC[C@]43C)[C@@H]12 [LUPEOL] | 100 | 30
9 | CC1(C)CC[C@]2(C(=O)O)CC[C@]3(C)C(=CC[C@@H]4[C@@]5(C)CC[C@H](O)C(C)(C)[C@@H]5CC[C@]43C)[C@@H]2C1 [OLEANOLIC_ACID] | 100 | 30

Source: ChEMBL document CHEMBL4699508, “Bioactivity-Guided Discovery of Human Carboxylesterase Inhibitors from the Roots of Paeonia lactiflora” (J Nat Prod, 2020)
